According to PubChem BioAssay (NCI):
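Interpolation was linear, between the two tested concentrations surrounding the appropriate level; five concentrations were tested over 48 hours in 96-well plates. Here, GI50 denotes the concentration required for 50% inhibition of growth. Definition used: TGI = concentration required for complete inhibition of growth.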

Tests used:
Assay in all cases: NCI anticancer screen, dose series, 48 h
OVCAR-5 ovarian = tested on: OVCAR-5 ovarian
PC-3 prostate = tested on: PC-3 prostate
MALME-3M melanoma = tested on: MALME-3M melanoma
MDA-MB-231 breast = tested on: MDA-MB-231 breast
HT29 colon = tested on: HT29 colon
CAKI-1 renal = tested on: CAKI-1 renal
RPMI-8226 leukemia = tested on: RPMI-8226 leukemia
NCI-H23 lung = tested on: NCI-H23 lung
CCRF-CEM leukemia = tested on: CCRF-CEM leukemia
HL-60(TB) leukemia = tested on: HL-60(TB) leukemia

SMILES	TGI (OVCAR-5 ovarian) [µM]	TGI (PC-3 prostate) [µM]	TGI (MALME-3M melanoma) [µM]	TGI (MDA-MB-231 breast) [µM]	TGI (HT29 colon) [µM]	TGI (CAKI-1 renal) [µM]	TGI (RPMI-8226 leukemia) [µM]	TGI (NCI-H23 lung) [µM]	TGI (CCRF-CEM leukemia) [µM]	TGI (HL-60(TB) leukemia) [µM]	GI50 (OVCAR-5 ovarian) [nM]	GI50 (PC-3 prostate) [nM]	GI50 (MALME-3M melanoma) [nM]	GI50 (MDA-MB-231 breast) [nM]	GI50 (HT29 colon) [nM]	GI50 (CAKI-1 renal) [nM]	GI50 (RPMI-8226 leukemia) [nM]	GI50 (NCI-H23 lung) [nM]	GI50 (CCRF-CEM leukemia) [nM]	GI50 (HL-60(TB) leukemia) [nM]
O=C1c2cccc3cc([N+](=O)[O-])cc(c23)C(=O)N1O	> 100	> 100	> 100	> 100	> 100	> 100	> 100	> 100	> 100	> 100	–	–	–	–	–	–	–	–	–	–
CCN1C(=O)N(CC)C2C1NN=c1s/c(=C\c3ccccc3)c(=O)n12 (centres undefined)	> 100	> 100	> 100	> 100	> 42.2	> 100	> 72.4	> 100	> 100	0.64	498	157	1090	416	98.9	71.7	389	544	232	198
COc1cc(C2C(C#N)=C(N)Oc3cc4c(cc32)OCO4)cc2c1OCO2 (centres undefined)	> 100	> 100	> 100	> 100	> 59.7	> 100	> 71	> 100	> 100	0.715	1290	278	2670	774	324	382	406	313	318	219
C[C@@H](Oc1cc(-c2cnn(C3CC4(CCCNC4)C3)c2)cnc1N)c1c(Cl)ccc(F)c1Cl (some centres undefined)	4.93	6.83	3.12	3.11	2.3	6.62	5.05	3.41	4.77	3.01	1290	1250	1300	1290	607	2080	1900	1140	936	1160
Cc1cccnc1CNC1CC(NCc2ncccc2C)CC(NCc2ncccc2C)C1 (centres undefined)	5.23	4.52	9.46	3.56	> 39.3	21.8	4.3	6.82	4.71	5.98	1920	2300	2840	1600	3360	4840	1910	2800	2180	2470
CCN(CC)c1ccc2nc3c4ccccc4c(=NC(=O)c4ccccc4-c4c5ccc(N(CC)CC)cc5[o+]c5cc(N(CC)CC)ccc45)cc-3oc2c1	11.9	> 20.6	10.2	8.91	> 32.2	18.9	4.2	6.13	13.4	> 100	3230	1970	2920	1990	2730	4950	722	1880	2100	2960
CC(C)CNc1nc(N=[N+]=[N-])nc(NCC(C)C)n1	> 10	> 10	> 10	> 10	> 10	> 10	> 10	> 10	> 10	> 10	> 10000	> 10000	> 10000	> 10000	> 10000	> 10000	> 10000	> 10000	> 10000	> 10000
Nc1cccc2nsnc12	> 100	> 100	> 100	> 100	> 100	> 100	> 86.9	> 100	> 82.4	26.7	–	–	–	–	–	–	–	–	–	–
Cc1cc2c(C(C)C)c(O)c(O)c(C=O)c2c(O)c1-c1c(C)cc2c(C(C)C)c(O)c(O)c(C=O)c2c1O (tested in a mixture with another compound)	5.26	3.42	5.01	5.8	3.51	4.81	4.74	2.03	13.7	5.74	1650	455	1740	2110	1610	966	529	464	546	535
N#CC[C@H](C1CCCC1)n1cc(-c2ncnc3[nH]ccc23)cn1	> 78.5	> 100	> 100	> 100	41.5	> 100	> 100	75.7	> 100	60.6	26700	35200	34100	23900	19700	7910	36000	19600	29100	22700
N#CSCC(=O)c1ccc(Cl)cc1	27.9	57.5	42.9	12.4	19.7	1.16	4.65	32.3	20.6	> 22.3	5390	3950	5760	3570	3590	18.2	1440	4270	1500	–
O=C(CC1(O)C(=O)Nc2c(Cl)ccc(Cl)c21)c1ccc(C2CC2)cc1 (centres undefined)	16.8	16.6	26.8	21.8	2.22	17.3	16.5	23.1	20.1	10.3	2050	1380	1530	2640	586	449	870	772	843	318
Brc1ccc(Br)nn1	24.8	22	3.7	4.23	> 22.3	5.07	6.44	4.23	3.65	4.85	11700	4410	1750	1830	3380	1960	1830	1380	404	1220
